In patent US20260159525A1, “TRICYCLIC HETEROCYCLES” (Merck Patent GmbH, priority 2021, published 2026) one finds IC50 data, which are given here for 24 compounds.

For this experiment, the system named is YAP-TEAD interaction. The experiment in a line: SK-HEP-1 reporter assay (8x TEAD responsive elements driving NanoLuc luciferase). The experiment is classed as cell-based. The note with it: Homo sapiens, SK-HEP1, SK-HEP-1 cells, 24 hour incubation. As for the experimental part: To identify inhibitors of YAP-TEAD interaction, 8× TEAD responsive elements driving the NanoLuc® luciferase gene were stably integrated into SK-HEP-1 cells (ECACC #: 91091816).
For the assay, cells were treated in duplicates with the test compounds in a 10-point dose, with the top concentration starting at 30 μM (final concentration in assay). After a 24 hour incubation at 37° C., 95% rH, and 5% CO2, a luciferase substrate/lysis reagent mix (NanoGlo™, Promega) was added to the cells, allowing the quantification of cellular luciferase activity.
Cell Media: The cells were cultured in the following media: MEM, +10% FBS, +1× GlutaMAX, +1 mM Sodium-Pyruvate, +100 μM Non-essential amino acids, +0.1 mg/ml Hygromycin. The media used for the assay was: MEM (w/o Phenol Red), +10% FBS, +1× GlutaMAX, +1 mM Sodium-Pyruvate, +100 μM Non-essential amino acids, +0.5% Pen/Strep
Reagents: The reagents used are listed below:
Cell culture: The cells were examined using an inverted microscope to check for health and cell density. To dissociate adherent cells, the monolayer of cells was washed once with pre-warmed PBS. After removing the PBS, 3 ml pre-warmed Accutase® was added to a F75 flask, dispersed evenly and the flask was allowed to sit in incubator for ˜4-5 minutes.
When a single cell suspension was obtained, 7 ml of prewarmed growth media was added and resuspended with the cells. The cell suspension was transferred to a sterile 15 ml conical centrifuge tube, and spun for 5 min at 300×g, RT. The supernatant was discarded and the pellet was resuspended in 10 ml of pre-warmed growth media.
The total cell count was determined, and 20 μl of the desired cell number was added to each well of a 384 well plate using a Multidrop Combi. The plates were then incubated for 24 hours at 37° C., 95% rH, and 5% CO2.
Compound treatment: 24 hours after seeding, the cells were treated with compounds.
A 1:333 dilution of compounds, diluted in DMSO, was made to get a final concentration of 0.3% DMSO per well. To transfer the compounds to the assay plate, 120 nl was shot from Labcyte low dead volume plates to the cell plates containing 20 μl media/well with the ECHO 555 liquid handling system. After treatment, the cells were fed with 20 μl fresh pre-warmed assay media using a Multidrop combi.
The assay plates were then incubated for another 24 h at 37° C., 95% rH, and 5% CO2.
Luciferase readout: 24 h after treatment, the plates were taken out of the incubator and were allowed to equilibrate to RT. 30 μl of NanoGlo® reagent was added to the plates in the dark. Plates were shaken for 20 min on a Teleshake (˜1500 rpm) in the dark. The luminescence was then measured using an EnVision microplate reader. The IC50 values were generated using Genedata Screener®.
In general terms: In a reporter assay the amount or activity of a reporter protein is the signal.

[1] abbreviates: number, or n.d. (x) = not detectable below threshold x.

Take `CC[C@@H](O)CNC(=O)c1cc2c3cn(C)nc3n(-c3ccc(C(F)(F)F)cc3)c2s1` [Compound 82, N-[(2R)-2-hydroxybutyl]-4-methyl-7-[4-(trifluoromethyl)phenyl]-9-thia-4,5,7-triazatricyclo[6.3.0.0^2,6]undeca-1(8),2,5,10-tetraene-10-carboxamide]: the half-maximal inhibitory concentration (IC50) (group symbols) lay in the range of 0.1 to 10 µM.

Compound `CNC(=O)c1cc2c(s1)c1cn(C)nc1n2C[C@H]1C[C@@H](C(F)(F)F)C1` [Compound 39, N,10-dimethyl-7-{[(1s,3s)-3-(trifluoromethyl)cyclobutyl]methyl}-3-thia-7,9,10-triazatricyclo[6.3.0.0^2,6]undeca-1(11),2(6),4,8-tetraene-4-carboxamide] yielded an IC50 (group symbols) of 0.1 to 10 µM.

As to `Cn1cc2c3cc(C(=O)NCC4CNC4)sc3n(-c3ccc(C(F)(F)F)cc3)c2n1` [Compound 60, N-[(azetidin-3-yl)methyl]-4-methyl-7-[4-(trifluoromethyl)phenyl]-9-thia-4,5,7-triazatricyclo[6.3.0.0^2,6]undeca-1(8),2,5,10-tetraene-10-carboxamide], the IC50 (group symbols) lay in the range of 0.1 to 10 µM.

For the compound `Cn1cc2c3cc(C(=O)O)sc3n(-c3ccc(OC(F)(F)F)cc3)c2n1` [Compound 54, 4-methyl-7-[4-(trifluoromethoxy)phenyl]-9-thia-4,5,7-triazatricyclo[6.3.0.0^2,6]undeca-1(8),2,5,10-tetraene-10-carboxylic acid], the IC50 (group symbols) is 0.001 to 0.01 µM.

`Cn1cc2c3cc(C(=O)O)sc3n(-c3ccc(C(F)(F)F)cn3)c2n1` [Compound 53, 4-methyl-7-[5-(trifluoromethyl)pyridin-2-yl]-9-thia-4,5,7-triazatricyclo[6.3.0.0^2,6]undeca-1(8),2,5,10-tetraene-10-carboxylic acid] displayed a half-maximal inhibitory concentration (IC50) (group symbols) of 0.001 to 0.01 µM.

The compound `Cn1cc2c3cc(C(=O)O)sc3n(-c3ccc(OC(F)F)cn3)c2n1` [Compound 127, 7-[5-(difluoromethoxy)pyridin-2-yl]-4-methyl-9-thia-4,5,7-triazatricyclo[6.3.0.0^2,6]undeca-1(8),2,5,10-tetraene-10-carboxylic acid] displayed an IC50 (group symbols) of 0.01 to 0.1 µM.

In the case of `Cn1cc2c3cc(C(=O)NC(CO)CO)sc3n(-c3ccc(C(F)(F)F)cc3)c2n1` [Compound 112, N-(1,3-dihydroxypropan-2-yl)-4-methyl-7-[4-(trifluoromethyl)phenyl]-9-thia-4,5,7-triazatricyclo[6.3.0.0^2,6]undeca-1(8),2,5,10-tetraene-10-carboxamide], the IC50 under setting [1] is over 9.5 µM.

`CNC(=O)c1cc2c(s1)c1nc(C)sc1n2-c1ccc(C(F)(F)F)cc1` [Compound 23, N,4-dimethyl-7-[4-(trifluoromethyl)phenyl]-5,11-dithia-3,7-diazatricyclo[6.3.0.0^2,6]undeca-1(8),2(6),3,9-tetraene-10-carboxamide] gave an IC50 (group symbols) of over 10 µM.

Compound `C[C@H](CO)NC(=O)c1cc2c3nn(C)nc3n(-c3ccc(C(F)(F)F)cc3)c2s1` [Compound 106, N-[(2R)-1-hydroxypropan-2-yl]-4-methyl-7-[4-(trifluoromethyl)phenyl]-9-thia-3,4,5,7-tetraazatricyclo[6.3.0.0^2,6]undeca-1(8),2,5,10-tetraene-10-carboxamide] came in with a half-inhibitory concentration (IC50) (group symbols) of 0.1 to 10 µM.

In turn, `Cn1cc2c3cc(C(=O)NC[C@@H](O)CO)sc3n(-c3ccc(C(F)(F)F)cc3)c2n1` (single isomer, unassigned) [Compound 128] gave a half-inhibitory concentration (IC50) under setting [1] of over 30 µM.

Under setting [1], `Cn1ccc([C@H](CO)NC(=O)c2cc3c4cn(C)nc4n(-c4ccc(C(F)(F)F)cc4)c3s2)n1` (single isomer, unassigned) [Compound 131] had an IC50 of over 0.095 µM.

`CNC(=O)c1cc2c(s1)c1nn(C)nc1n2-c1ccc(OC(F)(F)F)cc1` [Compound 29, N,4-dimethyl-7-[4-(trifluoromethoxy)phenyl]-11-thia-3,4,5,7-tetraazatricyclo[6.3.0.0^2,6]undeca-1(8),2,5,9-tetraene-10-carboxamide] came in with an IC50 (group symbols) of over 10 µM.

With `COCC[C@H](CO)NC(=O)c1cc2c3cn(C)nc3n(-c3ccc(C(F)(F)F)cc3)c2s1` (single isomer, unassigned) [Compound 58], for the setting “group symbols”, the IC50 was over 10 µM.

In the case of `Cn1cc2c3cc(C(N)=O)sc3n(-c3ccc(C(F)(F)F)cc3)c2n1` [Compound 89, 4-methyl-7-[4-(trifluoromethyl)phenyl]-9-thia-4,5,7-triazatricyclo[6.3.0.0^2,6]undeca-1(8),2,5,10-tetraene-10-carboxamide], half-maximal inhibition under setting [1] (IC50) required 0.98 µM.

`Cn1nc2c3cc(C(=O)N4CC[C@@H](O)C4)sc3n(-c3ccc(C(F)(F)F)cc3)c2n1` [Compound 108, (3R)-1-{4-methyl-7-[4-(trifluoromethyl)phenyl]-9-thia-3,4,5,7-tetraazatricyclo[6.3.0.0^2,6]undeca-1(8),2,5,10-tetraene-10-carbonyl}pyrrolidin-3-ol]: the half-maximal inhibitory concentration (IC50) (group symbols) was over 10 µM.

Under “group symbols”, `Cn1cc2c3sc(C(=O)O)cc3n(CCC(C)(C)C(F)(F)F)c2n1` [Compound 24, 10-methyl-7-(4,4,4-trifluoro-3,3-dimethylbutyl)-3-thia-7,9,10-triazatricyclo[6.3.0.0^2,6]undeca-1(11),2(6),4,8-tetraene-4-carboxylic acid] gave an IC50 of 0.1 to 10 µM.

Turning to `C[C@H](CO)NC(=O)c1cc2c3cn(C)nc3n(-c3ccc(SC(F)(F)F)cc3)c2s1` [Compound 84, N-[(2R)-1-hydroxypropan-2-yl]-4-methyl-7-{4-[(trifluoromethyl)sulfanyl]phenyl}-9-thia-4,5,7-triazatricyclo[6.3.0.0^2,6]undeca-1(8),2,5,10-tetraene-10-carboxamide], the 50% inhibitory concentration (IC50) (group symbols) was 0.01 to 0.1 µM.

With `Cn1cc2c3cc(C#N)sc3n(-c3ccc(C(F)(F)F)cc3)c2n1` [Compound 94, 4-methyl-7-[4-(trifluoromethyl)phenyl]-9-thia-4,5,7-triazatricyclo[6.3.0.0^2,6]undeca-1(8),2,5,10-tetraene-10-carbonitrile], the IC50 (group symbols) fell in the range of 0.1 to 10 µM.

Compound `C[C@@H](CO)NC(=O)c1cc2c3nn(C)nc3n(-c3ccc(C(F)(F)F)cc3)c2s1` [Compound 110, N-[(2S)-1-hydroxypropan-2-yl]-4-methyl-7-[4-(trifluoromethyl)phenyl]-9-thia-3,4,5,7-tetraazatricyclo[6.3.0.0^2,6]undeca-1(8),2,5,10-tetraene-10-carboxamide] displayed an IC50 under setting [1] of over 30 µM.

`Cn1nc2c3cc(C(=O)N[C@@H](CO)c4ccccn4)sc3n(-c3ccc(C(F)(F)F)cc3)c2n1` [Compound 104, N-[(1R)-2-hydroxy-1-(pyridin-2-yl)ethyl]-4-methyl-7-[4-(trifluoromethyl)phenyl]-9-thia-3,4,5,7-tetraazatricyclo[6.3.0.0^2,6]undeca-1(8),2,5,10-tetraene-10-carboxamide] gave an IC50 (group symbols) of 0.1 to 10 µM.

With `CNC(=O)c1cc2c3cn(C)nc3n(-c3ccc(C(F)(F)F)nc3)c2s1` [Compound 87, N,4-dimethyl-7-[6-(trifluoromethyl)pyridin-3-yl]-9-thia-4,5,7-triazatricyclo[6.3.0.0^2,6]undeca-1(8),2,5,10-tetraene-10-carboxamide], under setting [1], the IC50 is over 30 µM.

As for `Cn1nc2c3sc(C(=O)NC4CC4)cc3n(-c3ccc(C(F)(F)F)cc3)c2n1` [Compound 6, N-cyclopropyl-4-methyl-7-[4-(trifluoromethyl)phenyl]-11-thia-3,4,5,7-tetraazatricyclo[6.3.0.0^2,6]undeca-1(8),2,5,9-tetraene-10-carboxamide], the 50% inhibitory concentration (IC50) (group symbols) lay within 0.1 to 10 µM.

The compound `COCC(CO)NC(=O)c1cc2c3cn(C)nc3n(-c3ccc(C(F)(F)F)cc3)c2s1` (stereo not drawn) [Compound 111, N-(1-hydroxy-3-methoxypropan-2-yl)-4-methyl-7-[4-(trifluoromethyl)phenyl]-9-thia-4,5,7-triazatricyclo[6.3.0.0^2,6]undeca-1(8),2,5,10-tetraene-10-carboxamide] returned a 50% inhibitory concentration (IC50) (group symbols) of 0.1 to 10 µM.

As for `C[C@H](CO)NC(=O)c1cc2c3cn(C)nc3n(-c3ccc(C(F)(F)F)nc3)c2s1` [Compound 86, N-[(2R)-1-hydroxypropan-2-yl]-4-methyl-7-[6-(trifluoromethyl)pyridin-3-yl]-9-thia-4,5,7-triazatricyclo[6.3.0.0^2,6]undeca-1(8),2,5,10-tetraene-10-carboxamide], under setting [1], the IC50 is over 30 µM.

As usually defined, the IC50 is the concentration that inhibits the measured activity by half.
